Test results published in patent publication US10226514B2, “Methods and compositions for reducing blood glucose levels” (The Children's Medical Center Corporation, priority 2011, dated 2019).
“Also recorded” adds a separate entry of the source.

Assays:
XBP1s [1] = assay: XBP1s phosphorylation at Thr48 and Ser61 in cells (MS/MS, phospho-specific antibodies); format: cell-based, mouse; conditions: anisomycin 25 ng/ml
Method: MEFs were infected with flag-tagged XBP1s expressing adenovirus and treated with anisomycin (25 ng/ml) for 2 h. Cells were washed with ice-cold PBS and lysed with RIPA buffer (50 mM Tris-HCl, pH 7.5; 2 mM EGTA; 0.3% CHAPS; 100 mM NaF; 10 mM Na4P2O7; 1 mM Na3VO4; 10 μg/ml Leupeptin; 10 μg/ml Aprotinin; 2 mM PMSF and 20 nM Okadaic acid). After overnight incubation with anti-flag antibody, Protein A sepharose beads were added for additional 2 h at 4° C. Immunoprecipates were washed three times with RIPA buffer containing 150 mM NaCl and boiled for 5 min in 2× Laemmli buffer for elution of immunoprecipitated XBP1s. Samples were resolved in SDS-PAGE and stained with Coomassie blue (Bio-Rad). Protein from Coomassie-stained gel bands was digested with trypsin and the resulting peptide mixtures were subjected to microcapillary liquid chomatography tandem mass spectrometry (LC-MS/MS). MS/MS spectra were assigned by searching them with the XBP1s protein sequence using the SEQUEST algorithm.
Similar results were obtained from XBP1s^Ser61 phosphorylation.

XBP1s [2] = assay: Cytoplasmic and nuclear XBP1s protein in cells; format: cell-based, mouse; conditions: anisomycin 25 ng/ml, two hours
Method: Cytoplasmic and nuclear protein fractions were extracted from cells by using nuclear protein extraction kit from Active Motif (Carlsbad, Calif.). Cells were maintained in 10 cm tissue culture dishes for nuclear/cytoplasmic extraction. After removal of the media, cells were washed with ice-cold phosphate buffered saline (PBS) containing phosphatase inhibitors. Subsequently, 3 ml of ice-cold PBS with phosphatase inhibitors was added and then cells were scrapped out of the dish. Collected cells were separated from PBS by centrifugation for 5 minutes at 500 rpm and resuspended with 500 μl of 1× hypotonic buffer. After 15-minute incubation in hypotonic buffer on ice, 25 μl of supplied detergent was added and cells were vortexed 10 seconds. Cells were centrifuged for 30 seconds at 14,000×g and supernatant (cytoplasmic fraction) was saved for further analysis. Remaining pellet, which contains nuclei, were resuspended with 50 μl of provided complete lysis buffer with 1 mM dithiothreitol (DTT), vortexed 10 seconds, and incubated for 30 minutes on ice. After 30-second vortexing and 10-minute centrifugation at 14,000×g, the supernatant was collected and analyzed as nuclear fraction.

With `COc1ccc(C[C@H]2NC[C@H](O)[C@H]2OC(C)=O)cc1` [anisomycin] the “phosphorylation of XBP1s at Ser61” value (XBP1s [1]) was “increases phosphorylation of XBP1s at Ser61; also recorded: strongly induced phosphorylation of XBP1s at Ser61”, the “phosphorylation of XBP1s at Thr48” value (XBP1s [1]) was “greatly increased phosphorylation of the Thr48 residue” and the “cytoplasmic levels of XBP1s vs vehicle-treated cells” value (XBP1s [2]) was 28.8 times. For the same molecule, the “nuclear levels of XBP1s vs vehicle-treated cells” value (XBP1s [2]) was 141.8 times.
